Reference: PubChem BioAssay (NCI)
“And” between values parts separate entries of the source, which are not always exact repeats. Equal entries are not always repeated.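 Five concentrations, 48 hours, 96-well plates. At the GI50, growth is halved. TGI: concentration producing complete growth inhibition.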

What was measured:
Assay in all cases: DTP human tumour cell line panel, 48 h
HCC-2998 colon = test system: HCC-2998 colon
HT29 colon = test system: HT29 colon
MDA-MB-231 breast = test system: MDA-MB-231 breast
MDA-MB-435 = test system: MDA-MB-435
NCI-H23 lung = test system: NCI-H23 lung
SN12C renal = test system: SN12C renal
SW-620 colon = test system: SW-620 colon
TK-10 renal = test system: TK-10 renal
UACC-257 melanoma = test system: UACC-257 melanoma
UO-31 renal = test system: UO-31 renal

SMILES	GI50 (HCC-2998 colon)	TGI (HCC-2998 colon)	GI50 (HT29 colon)	TGI (HT29 colon)	GI50 (MDA-MB-231 breast)	TGI (MDA-MB-231 breast)	GI50 (MDA-MB-435)	TGI (MDA-MB-435)	GI50 (NCI-H23 lung)	TGI (NCI-H23 lung)	GI50 (SN12C renal)	TGI (SN12C renal)	GI50 (SW-620 colon)	TGI (SW-620 colon)	GI50 (TK-10 renal)	TGI (TK-10 renal)	GI50 (UACC-257 melanoma)	TGI (UACC-257 melanoma)	GI50 (UO-31 renal)	TGI (UO-31 renal)
CC(CO)Nc1cc(-c2[nH]c3cccnc3c2-c2ccc(F)cc2)ccn1 (stereo unspecified)	> 25 µM	> 25 µM	9.77 µM	> 25 µM	19.3 µM	> 25 µM	> 22.4 µM	> 25 µM	> 25 µM	> 25 µM	15.1 µM	> 25 µM	20.3 µM	> 25 µM	6.86 µM	> 25 µM	> 25 µM	> 25 µM	3.89 µM	> 25 µM
CCOc1ccccc1CCN=C1NC(=O)/C(=C/c2ccc3ncccc3c2)S1	3.05 µM	11.8 µM	0.783 µM	3.16 µM	4.24 µM	18.6 µM	0.491 µM	1.71 µM	2.1 µM	> 25 µM	1.61 µM	> 25 µM	0.712 µM	5.28 µM	1.35 µM	> 23.3 µM	10.5 µM	> 22.7 µM	1.31 µM	15.9 µM
COc1cc(C)ccc1C(=O)c1ccc(C)cc1OC	2.87 µM	35.9 µM	1.85 µM	7.99 µM	7.58 µM	> 100 µM	0.295 µM	1.08 µM	6.31 µM	> 100 µM	15.7 µM	> 100 µM	1.41 µM	> 100 µM	9.15 µM	> 100 µM	54.8 µM	> 100 µM	5.74 µM	> 100 µM
N#CC(C#N)=C/C=C(\Cl)c1ccc(Cl)cc1	6.75 µM	19.9 µM	0.98 µM		2.54 µM	14 µM	2.73 µM	10 µM	2.66 µM	9.04 µM	4.52 µM	26.7 µM	1.93 µM	9.9 µM	4.66 µM	19.2 µM	14.8 µM	30.2 µM	14.4 µM	44.9 µM
CN(C)c1cc2ccccc2oc1=O		> 100 µM		> 100 µM		> 100 µM		> 100 µM		> 100 µM		> 100 µM		> 100 µM		> 100 µM		> 100 µM		> 100 µM
CCN1C(=O)N(CC)C2C1NN=c1s/c(=C\c3ccc(Cl)cc3Cl)c(=O)n12 (stereo unspecified)	0.0367 µM	10.9 µM	0.0329 µM	12.3 µM	0.0336 µM	4.79 µM	0.0206 µM	0.0572 µM	0.0505 µM	> 100 µM	0.0482 µM	> 53.4 µM	0.0439 µM	> 100 µM	13.4 µM	59.3 µM	1.05 µM	> 88.4 µM	0.167 µM	60.4 µM
COc1ccc(-c2noc(C(=O)O)c2-c2cc(OC)c(OC)c(OC)c2)cc1	5.75 µM	> 100 µM	1.5 µM	> 100 µM	7.66 µM	> 100 µM	0.306 µM	1.1 µM	9.17 µM	> 100 µM	37.2 µM	> 100 µM	1.53 µM	> 100 µM	> 100 µM	> 100 µM	> 100 µM	> 100 µM	5.45 µM	> 100 µM
Cc1ccc(S(=O)(=O)SC/C=C\CSS(=O)(=O)c2ccc(C)cc2)cc1		> 100 µM	6.14 µM and 20.3 µM	> 62.8 µM and 39.7 µM		> 31.6 µM		27.6 µM		73.9 µM and 34.7 µM		88.5 µM and 37.1 µM		74.2 µM and 29.8 µM	50 µM and 20.4 µM	> 100 µM and 45.5 µM	42.3 µM and 20.8 µM	> 56.2 µM and 45.1 µM		> 100 µM
C/C(CC(O)(C(F)(F)F)C(F)(F)F)=N\NC(N)=O		> 10 µM		> 10 µM		> 10 µM		> 10 µM		> 10 µM		> 10 µM		> 10 µM		> 10 µM		> 10 µM		> 10 µM
c1ccc(C2ONC3=NCCN32)cc1 (stereo unspecified)	58.1 µM	> 100 µM	67.9 µM	> 100 µM	37.2 µM	> 100 µM	93.9 µM	> 100 µM	66.2 µM	> 100 µM			44.7 µM	> 100 µM	> 100 µM	> 100 µM	> 100 µM	> 100 µM	27.3 µM	> 100 µM
COc1cccc(-c2nc3cc(NC(=O)c4ccc(Cl)c(C#N)c4)ccc3o2)c1					3.28 µM	> 100 µM	1.37 µM	2.85 µM	1.69 µM	4.15 µM	3.1 µM	> 100 µM	4.11 µM	> 100 µM	3.39 µM	9 µM	3.81 µM	> 100 µM	3.95 µM	> 100 µM
c1ccc(NN(Cc2cnccn2)c2ccccc2)cc1				> 100 µM		> 100 µM		> 100 µM		> 100 µM		> 100 µM		> 100 µM		> 100 µM		> 100 µM		
CNC(=S)Nc1ccc(OC)c2ccccc12		> 10 µM		> 10 µM		> 10 µM		> 10 µM		> 10 µM		> 10 µM		> 10 µM		> 10 µM		> 10 µM		
CC(=O)Nc1ccc(-c2cc(C(=O)O)c3cc4ccccc4cc3n2)cc1				> 100 µM		> 100 µM		> 100 µM		> 100 µM		> 100 µM		> 100 µM		> 100 µM		> 100 µM		
Clc1ccc(-c2cn3ccnc3c(-c3ccc(Cl)cc3)n2)cc1			12.5 µM	> 100 µM	7.04 µM	47 µM	2.79 µM	8.07 µM	24.3 µM	80.1 µM	16.7 µM	95.1 µM	7.42 µM	> 100 µM	22.6 µM	73.5 µM	2.58 µM	33.9 µM		
CCC1(O)C(=O)OCc2c1cc1n(c2=O)Cc2cc3ccccc3nc2-1 (stereo unspecified)		11.2 µM		0.394 µM		7.06 µM		8.35 µM		0.0806 µM				> 41.2 µM		50.5 µM		3.57 µM		0.156 µM
